According to patent publication US20220177515A1, “METHOD FOR MODIFYING AMINO GROUP IN MOLECULE WITH THE ZOLINIUM AND USE THEREOF” (priority 2019, published 2022):
Blank lines part the entries; values can stand above or below the compound they belong to. Starred links: 1 amine or outer side, 2 acyl side, 3 side chain; linkers in the order of their positions; H or OH if unused. Non-standard residues stand in square brackets, D forms with d. Residues, ends and D or L forms follow the SMILES beside them. X1 = O=C([C@H](Cc1ccc(O)cc1)N(c1ccc2ccccc2n1)[*:1])[*:2]

Legend:
[1] = molecular target: μ-opioid receptor (MOR) (Homo sapiens, UniProt P35372); experiment: [35S]GTPγS binding assay, MOR agonist activity; format: biochemical; conditions: for Emax: [35S]GTPγS binding rate
Experimental: Protein concentration was detected using BCA protein concentration assay kit: 10 μl of protein standard was prepared into a final concentration of 0.5 mg/ml. 0, 1, 2, 4, 8, 12, 16, or 20 μl of BSA standard protein was taken and added together with the sample to be tested to a 96-well plate, and supplemented to 20 μl with the solution for diluting the standard. 200 μl of BCA working solution was added to each well and placed at 37° C. for 30 min. The absorbance at A562 wavelength was measured with a microplate reader. The protein concentration was calculated based on the standard curve.
The prepared membrane receptor was diluted to the required concentration with the reaction buffer (R.B), and the samples were added as shown in Table 2 (unit: μl).
The reaction tube was incubated in a 27° C. water bath for 1 hour, and the mixture was filtered through a glass fiber membrane under reduced pressure and liquid scintillation counting was performed. The following equation was used to perform calculation:
[^35S] GTPγS binding rate=100×(cpmsample−cpmnon-specific)/(cpmbasal−cpmnon-specific)

[2] = format: in vitro ADME; conditions: 1 mg/ml in pig liver slurry, 0.25-3 hour, FIG. 3
Experimental: 5 g of a fresh pig liver from which adhering fat and connective tissue were removed, was washed with a cold saline, absorbed water on its surface with a filter paper and weighed. The liver was cut into pieces with a scissors, added with an appropriate amount of a PBS buffer, and homogenized with a homogenizer at a frequency of 30/s for 4 minutes to prepare 20 ml of a slurry. The compound 2-40 to be tested (at a final concentration of 1 mg/ml with a co-solvent (1% DMSO)) was added into the 20 ml pig liver slurry, stirred thoroughly and left stand. 1 ml of samples were withdrawn twice at six time points: 0.25 hour, 0.5 hour, 1 hour, 1.5 hour, 2 hour and 3 hour, respectively, and added with methanol (500 μl) to stop the reaction. After centrifugation (1000 rpm, 6 minutes), the supernatant was separated and extracted twice with 750 μl of water-saturated n-butanol. The extracted samples were then analyzed by HPLC. The HPLC analysis was performed on an Agilent Zorbax SB-C18 column (5 μm, 4.6×250 mm) with a flow rate of […] at 25° C. The gradient condition used was from 50% A (MeOH) and 50% B (H2O+0.2% CH3COOH) to 95% A and 5% B in 16 minutes. The absorbance values at 210, 254 and 280 nm were collected using a UV-DAD detector.

[3] = system: Hepatocarcinoma SMMC-7721 cells; experiment: Cell proliferation inhibition assay (SRB method), SMMC-7721; format: cell-based; conditions: for IC50: SMMC-7721, 72 hours, SRB
Experimental: (§1) Hepatocarcinoma BEL-7402 and SMMC-7721 cells were purchased from American Standard Bacterial Bank. All cell lines were stored in a cell culture medium containing 10% fetal bovine serum in a humid environment at 37° C. and 5% CO2. The two kinds of hepatocarcinoma cells were seeded in 96-well plates overnight. The assay were performed using a final highest concentration of 100 μM, 10-fold dilution, 6 gradients and 3 duplicates, and the cells were treated for 72 hours and three independent repeated experiments were carried out. The antiproliferative activity of the compound was determined by Sulforhodamine B (SRB) method. Then the absorbance OD value at a wavelength of 510 nm was measured on a Synergy H4 Hybrid reader (BioTek, Winooski, Vt., USA) by using Gen5.0 software (BioTek). The IC50 value was calculated using the software Prism 5 (GraphPad Software, Inc).

[4] = system: Hepatocarcinoma BEL-7402 cells; experiment: Cell proliferation inhibition assay (SRB method), BEL-7402; format: cell-based; conditions: for IC50: BEL-7402, 72 hours, SRB
Experimental: as §1

[5] = molecular target: tankyrase (TNKS); conditions: read-out: IC50 (TNKS inhibitor); cited from earlier work

μ-opioid receptor (MOR), sequence (P35372 whole entry): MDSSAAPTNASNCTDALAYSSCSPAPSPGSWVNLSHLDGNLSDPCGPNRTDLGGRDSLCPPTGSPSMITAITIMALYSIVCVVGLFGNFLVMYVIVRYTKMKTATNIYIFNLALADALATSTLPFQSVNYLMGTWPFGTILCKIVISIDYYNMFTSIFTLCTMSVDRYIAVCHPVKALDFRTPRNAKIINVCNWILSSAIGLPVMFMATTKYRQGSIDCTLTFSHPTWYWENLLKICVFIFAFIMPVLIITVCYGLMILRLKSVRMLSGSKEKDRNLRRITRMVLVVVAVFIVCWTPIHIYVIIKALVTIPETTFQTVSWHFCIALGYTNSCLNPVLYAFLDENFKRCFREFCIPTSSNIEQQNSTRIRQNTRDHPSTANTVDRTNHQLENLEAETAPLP

Compound: C[C@@H](NC(=O)[C@@H](N)Cc1ccc(O)cc1)C(=O)N[C@@H](Cc1ccccc1)C(=O)NCC(=O)N[C@@H](Cc1ccc(O)cc1)C(=O)N1CCC[C@H]1C(=O)N[C@@H](CO)C(N)=O [derorphin, reference compound]
Emax ([1]; mean ± sem): 219 ± 7.1%

metabolic stability in liver tissue [2]: good metabolic stability
Compound: C=C(/C=C\C(=C)NC(=O)[C@H](CCCNC(N)=O)NC(=O)[C@@H](Nc1cc(C)c2ccc(-c3ccccc3F)cc2n1)C(C)C)CO [Compound 2-40]

Compound: COC(=O)[C@H](CC(C)C)NC(=O)[C@H](CO)NC(=O)[C@@H](N)Cc1ccc(O)cc1 [YSL-M, tyroserleucide methyl ester, reference compound] (H-Tyr-Ser-Leu-OMe; N-terminus assumed)
IC50 [3]: > 100 µM
IC50 [4]: > 100 µM

Compound: C[C@H](NC(=O)[C@H](Cc1ccc(O)cc1)Nc1ccc2ccccc2n1)C(=O)N[C@H](Cc1ccccc1)C(=O)NCC(=O)N[C@H](Cc1ccc(O)cc1)C(=O)N1CCC[C@H]1C(=O)N[C@@H](CO)C(N)=O [Compound 2-38] (H-[X1]A[dF]G[dY]PS-NH2)
MOR agonist activity compared with derorphin [1]: activity comparable to that of derorphin
EC50 ([1]; mean ± sem): 0.224 ± 0.0251 µM
Emax ([1]; mean ± sem): 203 ± 5.1%

Compound: CC(C)C[C@H](NC(=O)[C@H](CO)NC(=O)[C@@H](N)Cc1ccc(O)cc1)C(=O)O [YSL, Tyroserleutide, reference compound] (H-Tyr-Ser-Leu-OH; N-terminus and C-terminus assumed)
IC50 [3]: > 100 µM
IC50 [4]: > 100 µM

Compound: Cc1cc(=O)[nH]c2cc(-c3ccccc3F)ccc12 [7-(2-fluorophenyl)-4-methylquinoline-2(1H)-one]
IC50 [5]: 0.052 µM

Compound: COC(=O)[C@H](CC(C)C)NC(=O)[C@H](CO)NC(=O)[C@H](Cc1ccc(O)cc1)Nc1ccc2ccccc2n1 [Compound 2-39]
cytotoxicity compared with unmodified drugs ([3]; SMMC-7721): better cytotoxicities than the unmodified drugs
IC50 [3]: 63.3 ± 6.35 µM
cytotoxicity compared with unmodified drugs ([4]; BEL-7402): better cytotoxicities than the unmodified drugs
IC50 [4]: 52.6 ± 2.47 µM
